The values that follow come from patent publication US8735152B2, “Methods for inducing cell death in pluripotent stem cells and differentiated cells other than cardiac myocytes” (Daiichi Sankyo Company, Limited, priority 2009, dated 2014).

Data set [1] in a line: Saccharide concentration and osmotic pressure of hypertonic solutions (measured values). In kind it is physicochemical. As for the experimental part: When the hypertonic solution having an osmotic pressure of 370 mOsm/kg or higher is prepared by adding a saccharide to the culture medium, the method of the present invention is characterized in that the hypertonic solution contains the saccharide in 0.1-1 M (mol/L), preferably 0.1-0.6 M (mol/L). The relation between the concentration of saccharide (mol/L) and the osmotic pressure (mOsm/kg) can be approximated by a substantially straight line; a hypertonic solution containing 0.1 M saccharide corresponds to one having an osmotic pressure of approximately 370 mOsm/kg and a hypertonic solution containing 1 M saccharide corresponds to one having an osmotic pressure of approximately 1300-1600 mOsm/kg.
Hypertonic solutions were prepared using various saccharides and the relation between the saccharide concentration and the osmotic pressure is shown in the following table for typical saccharides.

Data set [2] concerns mouse embryonic stem cell-derived cardiomyocytes, residual undifferentiated embryonic stem cells and other cells. As to the kind of experiment: Mannitol treatment of culture system containing both embryonic stem cell-derived cardiomyocytes and residual embryonic stem cells. In kind it is cell-based. The settings on record: 0.45 M, 36 hours. The procedure:
Mouse derived embryonic stem cells were treated by the method of Example 1 to form embryoid bodies, which were differentiated to a stage containing the programmed cardiomyocytes (precardiac mesoderms). Thus obtained embryoid bodies were treated with digestive enzymes (trypsin and collagenase) meticulously to ensure that no cell damage would be caused and the resulting partially dispersed embryoid bodies were subjected to another adherent culture. Upon a 5-day continued culture, populations of cardiomyocytes pulsating autonomously (the cell populations circled by the red lines), cell populations having the traits of embryonic stem cells-like cells (the cell populations circled by the yellow lines), and other cell populations were observed together (see FIG. 2(a)). In the next step, the culture medium for the mixed culture was replaced by a serum-free α-MEM culture medium containing mannitol in 0.45 M (approximately equivalent to 720 mOsm/kg) and ITS {insulin (10 mg/L), transferrin (5.5 mg/L), and sodium selenite ([…])} (GIBCO) and culture was performed for 36 hours. […] Subsequently, the culture medium was replaced by an α-MEM culture medium supplemented with 20% fetal calf serum and culture was continued, whereupon the cardiomyocytes restored autonomous pulsation in 1 or 2 days.

The test system of data set [3] is human induced pluripotent stem cells (iPS cells). As to the kind of experiment: Cell death inducing effect on human induced pluripotent stem cells (TMRM, FACS). It counts as cell-based. Particulars: 0.45 M, 2 hours. The procedure: The human iPS cells were obtained from Stem Cell Research Center, Institute for Frontier Medical Sciences, Kyoto University (ES cell center sponsored by the National Bio-Resource Project). The cells were cultured basically in accordance with the same method as that in the case of human embryonic stem cells, i.e., in accordance with the same method as described in Example 5. After passaging, the cells were dispersed with each other using TE (0.25% trypsin (GIBCO) and 1 mM EDTA) and in accordance with a published document (Watanabe, K. et al., Nat. Biotechnol., 2007, 25: 681-686, Epub 2007 May 27), 10 μM of a ROCK inhibitor (Y27632) was added to suppress cell death. At the same time, the mitochondria in the live cells were stained with 50 nM TMRM. […] In the control, cells were aggregated with each other to make masses, so before FACS analysis, both samples were given another treatment with trypsin and EDTA to disperse the cells; thereafter, the samples were analyzed by FACS for the level of mitochondrial membrane potential on the basis of the fluorescent intensity of TMRM to check the state of survival of the stem cells; the results are shown in FIG. 12. […]

Data set [4] concerns mouse embryonic stem cells. Nature of the data set: Cell death inducing effect of low-concentration mannitol on mouse embryonic stem cells (adhesion, morphology). In kind it is cell-based. The settings on record: 0.2 M. The procedure:
Embryonic stem cells as cultured by the method described in Example 1 were cultured for an additional 48 or 72 hours in an α-MEM culture medium containing 0.2 M mannitol (approximately equivalent to 480 mOsm/kg); thereafter, the stem cells were checked for the state of their survival in terms of cell adhesion or non-adhesion and by morphological observation; the results are shown in FIG. 15.

In data set [5] the test system is cardiomyocyte containing mouse embryoid bodies. As to the kind of experiment: Low-concentration mannitol treatment of cardiomyocyte containing mouse embryoid bodies. In kind it is cell-based. The settings on record: 0.2 M, 72 hours. The procedure: Additionally, similar to the method described in Example 1, 75 mouse embryonic stem cells per EB were cultured as cell masses for a total of 7 days by the hanging-drop technique using a culture medium [α-MEM (minimum essential medium) (SIGMA), supplemented with 10% FBS (EQUITEC BIO), 100 units/ml penicillin, and 50 μg/ml streptomycin (GIBCO)], whereby the stem cells were differentiated into cell masses containing cardiomyocytes; thereafter, the embryoid bodies were adhered to the culture dish and cultured for another 3-5 days under the conditions of 37° C. and 5% CO2.

The next data set deals with embryonic stem cells. Nature of the data set: Study of mannitol concentration and duration of exposure versus cell death of embryonic stem cells. It counts as cell-based. The settings on record: 1M (substantially saturated concentration). An excerpt: The present inventors prepared hypertonic solutions containing mannitol dissolved in it at high concentrations and applied those hypertonic solutions to a mixed cell system comprising embryonic stem cells as well as cardiomyocytes and non-cardiomyocytes; they found the fact that upon exposure to the hypertonic solutions, the embryonic stem cells and non-cardiomyocytes were more likely to undergo cell death.

As to `OC[C@@H](O)[C@@H](O)[C@H](O)[C@H](O)CO` [mannitol], the Osmotic pressure in data set [1] (saccharide concentration 0.2 M in culture medium) is recorded as about 480 mOsm/kg; in data set [1] (saccharide concentration 0.45 M in culture medium) it was about 720 mOsm/kg; in data set [1] (saccharide concentration 0.45 M in culture medium, listed as Mannitol), 717 mOsm/kg; in data set [1] (saccharide concentration 0.6 M in culture medium), 875 mOsm/kg; in data set [1] (saccharide concentration 0.9 M in culture medium) it was 1234 mOsm/kg. Also, the “State of cells other than cardiomyocytes (cell death)” value in data set [2] (then culture in medium with 20% fetal calf serum) is given as “virtually all cells other than cardiomyocytes were found dead”. Also, in data set [2] (immunostaining), the “Nkx 2.5 positive cardiomyocytes among the obtained cells” value is recorded as at least 98%. In addition, in data set [3], the “Mitochondrial membrane potential (TMRM fluorescence, FACS)” value was “almost all of the cells treated with mannitol for 2 hours had lost membrane potential”. Also, the “State of survival (cell adhesion, morphology)” value is given as “almost all colonies had already detached from the culture dish” in data set [4] (48 hours) and “the cells were completely dead” in data set [4] (72 hours). Further, the “State of cells other than cardiomyocytes and of cardiomyocytes” value in data set [5] is “almost all cells other than cardiomyocytes had died and only the cardiomyocytes survived selectively”. Moreover, in the data set on embryonic stem cells, the “Cell death in embryonic stem cells” value is listed as “induced cell death in embryonic stem cells within a short period of time”.
